The target of experiment [1] is T1, C-BgsA (Sinorhizobium meliloti, UniProt Q92WG2, G635R).
T1 construct: gene SM_b20391
T1 sequence (Q92WG2 526-664 G635R): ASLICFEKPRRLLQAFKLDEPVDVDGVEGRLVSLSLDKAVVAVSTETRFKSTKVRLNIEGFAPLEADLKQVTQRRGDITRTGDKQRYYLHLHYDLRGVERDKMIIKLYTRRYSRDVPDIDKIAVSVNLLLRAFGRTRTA
The experiment in a line: SPR direct binding, immobilised ligand.

Experiment [2] concerns the target T2, C-BgsA (Sinorhizobium meliloti, UniProt Q92WG2).
T2 construct: gene SM_b20391
T2 sequence (Q92WG2 526-664): T1 sequence (Q92WG2 526-664 G635R) with R110G
Briefly: SPR direct binding, immobilised ligand.

The target of experiment [3] is T3, C-BgsA (Sinorhizobium meliloti, UniProt Q92WG2, G635V).
T3 construct: gene SM_b20391
T3 sequence (Q92WG2 526-664 G635V): T1 sequence (Q92WG2 526-664 G635R) with R110V
Briefly: SPR direct binding, immobilised ligand.

Experiment [4] has as its target T2, C-BgsA. The experiment in a line: SPR solution competition against immobilised […]′-AHC-c-di-GMP chip. It is filed as binding. Conditions: weak competitor; c-di-GMP at the same concentration gave 98%; 20 mM MOPS pH 8.0, 300 mM NaCl, 25 °C.
Experiment [5] concerns the target T4, C-BgsA (Sinorhizobium meliloti, UniProt Q92WG2, D608A).
T4 construct: gene SM_b20391
The experiment is described as above. The experiment is classed as binding.

The target in experiment [6] is T5, C-BgsA (Sinorhizobium meliloti, UniProt Q92WG2, R605A).
T5 construct: gene SM_b20391
T5 sequence (Q92WG2 entry or part of it R605A): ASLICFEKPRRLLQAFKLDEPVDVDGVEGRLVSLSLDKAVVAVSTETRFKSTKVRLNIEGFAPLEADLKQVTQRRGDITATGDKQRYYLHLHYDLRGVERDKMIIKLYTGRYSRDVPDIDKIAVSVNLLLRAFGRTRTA
The description is as above. It is filed as binding.

For experiment [7], the target named is T6, C-BgsA (Sinorhizobium meliloti, UniProt Q92WG2, R599A).
T6 construct: gene SM_b20391
T6 sequence (Q92WG2 entry or part of it R599A): as the sequence (Q92WG2 entry or part of it R605A) above, with R74A, A80R counted along it
The description is as above. The experiment is classed as binding.

For experiment [8], the target named is T7, C-BgsA (Sinorhizobium meliloti, UniProt Q92WG2, R656A).
T7 construct: gene SM_b20391
T7 sequence (Q92WG2 entry or part of it R656A): as the sequence (Q92WG2 entry or part of it R605A) above, with A80R, R131A counted along it
The description is as above. The experiment is classed as binding.

For experiment [9], the target named is T2, C-BgsA. The description is as above. It is filed as binding.
The target of experiment [10] is T8, C-BgsA (Sinorhizobium meliloti, UniProt Q92WG2, H615A).
T8 construct: gene SM_b20391
T8 sequence (Q92WG2 entry or part of it H615A): as the sequence (Q92WG2 entry or part of it R605A) above, with A80R, H90A counted along it
The description is as above. It is filed as binding.

Experiment [11] has as its target T9, C-BgsA (Sinorhizobium meliloti, UniProt Q92WG2, Y633A).
T9 construct: gene SM_b20391
The experiment is described as above. The experiment is classed as binding.

Positions count from the first letter of the chain named.

The results in this text go back to paper PMC5567048, “A novel c-di-GMP binding domain in glycosyltransferase BgsA is responsible for the synthesis of a mixed-linkage β-glucan” (Scientific Reports, 2017).

T4 sequence (Q92WG2 entry or part of it D608A): as the sequence (Q92WG2 entry or part of it R605A) above, with A80R, D83A counted along it
T9 sequence (Q92WG2 entry or part of it Y633A): as the sequence (Q92WG2 entry or part of it R605A) above, with A80R, Y108A counted along it

As to `NCCCCCCNC(=O)O[C@@H]1[C@@H]2OP(=O)(O)OC[C@H]3O[C@@H](n4cnc5c(=O)[nH]c(N)nc54)[C@H](O)[C@@H]3OP(=O)(O)OC[C@H]2O[C@H]1n1cnc2c(=O)[nH]c(N)nc21` [2′-AHC-c-di-GMP], the figures for the Kd in [1], in [2] and in experiment [3] were 190 nM, 230 nM and 140 nM, respectively.

With `Nc1ncnc2c1ncn2[C@@H]1O[C@@H]2COP(=O)(O)O[C@H]3[C@@H](O)[C@H](n4cnc5c(N)ncnc54)O[C@@H]3COP(=O)(O)O[C@H]2[C@H]1O` [c-di-AMP], the “% reduction of C-BgsA binding at 500 μM” value in experiment [4] is reported as 17%.

Regarding `Nc1nc2c(ncn2[C@@H]2O[C@@H]3CO[P@](=O)(O)O[C@H]4[C@@H](O)[C@H](n5cnc6c(=O)[nH]c(N)nc65)O[C@@H]4CO[P@](=O)(O)O[C@H]3[C@H]2O)c(=O)[nH]1` [c-di-GMP], the EC50 in [5] amounted to 270 ± 70 nM; in experiment [6], 140 ± 10 nM; in experiment [7], 372000 ± 114000 nM; in experiment [8] it was 400 ± 50 nM; in [9], 270 ± 10 nM; in experiment [10] it was 292000 ± 73000 nM. The same compound showed an EC50 in [11] of 230 ± 10 nM.
